In patent US11116708B2, “Personal care compositions including naringin:zinc complexes and methods for the same” (Colgate-Palmolive Company, priority 2017, dated 2021):

Tests used:
IL-1a = IL-1a assay using HaCaT cells stressed with 0.01% SDS (ELISA of cell supernatants); assay type: cell-based; conditions: 0.001% sample, 24 h pretreatment, 0.01% SDS stress 15 min, sample added again, normalized by cell viability
Experimental: The anti-inflammatory properties of the naringin:zinc complex was evaluated by conducting an IL-la assay using HaCaT cells. To evaluate the anti-inflammatory properties, HaCaT cells were grown into 80% confluency and pretreated for 24 hours with 1 mL of each of the following samples: (1) a culture media (control); (2) 0.001% naringin:zinc complex; and (3) 0.001% naringin alone.
After pretreating the HaCaT cells, the cells were stressed with 0.01% SDS for 15 minutes before adding another 1 mL of each of the samples (1)-(3). Each of the HaCaT cells were used to prepare cell supernatants, which were used for IL-la assays with IL-la ELISA kits.

[1] = tested on: human epidermal keratinocyte cells; assay: Scratch assay (cell migration / gap closure) using human epidermal keratinocyte cells; assay type: cell-based; conditions: 0.001% sample
Experimental: The cell regeneration function or properties of the naringin:zinc complex were evaluated via a scratch assay using human epidermal keratinocyte cells obtained from Thermal Fisher Scientific of Gaithersburg, Md. Particularly, monolayers of keratinocyte cells were gown to full confluency in separate wells, and each well was scratched with a 1000 μl tip to create a cell-free gap. Each of the wells with the cell-free gap was then washed with 1 mL of PBS twice to remove any dead floating cells. […] Distance measurements of the gap were taken every 24 hours until the gaps fully closed.
It should be appreciated that a relatively higher value of the percentage of gap closure indicates a relatively greater repair or regeneration function.

`C[C@@H]1O[C@@H](O[C@H]2[C@H](Oc3cc(O)c4c(c3)O[C@H](c3ccc(O)cc3)CC4=O)O[C@H](CO)[C@@H](O)[C@@H]2O)[C@H](O)[C@H](O)[C@H]1O` [Naringin, naringin] gave an IL-1a level (IL-1a) of 6.6 pg/mL and a Cell Migration of Keratinocytes (% Active); percentage of gap closure versus the starting gap distance [1] of 58%.
